A short description of assay [1]: Castor oil induced diarrhea in the rat. The class given is in vivo, rat (adult Charles River male). Conditions: for Potency (relative to diphenoxylate hydrochloride): oral, diphenoxylate = 1.0. On the procedure:
CASTOR OIL INDUCED DIARRHEA IN THE RAT
Adult Charles River male rats were fasted in community cages for 24 hours prior to the test, with free access to water. The compound was administered intragastrically (suspended on 0.5% methylcellulose) one hour prior to the administration of castor oil at the dose of 1.0 ml/rat intragastrically. The rats were then observed for the presence or absence of diarrhea, at hourly intervals for up to 8 hours past administration of castor oil. The median effective dose values at each hourly interval were calculated for the compound using the method of Berkson (1953). […] For example:
Comparative Oral Antidiarrheal Potency and Duration of 1-(3,3,3-triphenylpropyl)-4-phenyl-4-piperidinemethanol hydrochloride (a) to Diphenoxylate hydrochloride in the Rat Castor Oil Diarrhea Test

The nature of assay [2]: Mouse tail clip test (analgesia). The class given is in vivo. The following applies: at 100 and 30 mpk. As for the experimental part: (§1) The assessment of the analgesic effect of the instant compounds was conducted in the mouse hot plate and tail clip tests.
(§2) A special clip is applied to the base of the tail of the mouse (adult male weighing 18-25 grams) and the time for the animal to turn around to bite as it is measured. The sensitivity of each mouse is determined one-half hour prior to drug administration. Only those mice attempting to bite the clip are included in the experiment. The test compound is then administered intragastrically and the response to placement of the clip is determined at 30, 60, 90 and 120 minutes after treatment. A response is considered positive if the animal takes more than 2 times the pre-drug time to bite at the clip at any of these time intervals. A test compound is considered active when 50 percent or more of the animals used show a positive response.

Assay [3] is described as follows: Analgesic effect in the mouse hot plate and tail clip tests. The class given is in vivo. On the procedure: as §1
A mouse (adult male weighing 18-25 grams) is placed in a restraining cylinder on a hot plate with the temperature controlled at 55° ± 0.3° C. The reaction time of the mouse to lick a foot or jump is measured at 60, 40 and 20 minutes before and 30, 60, 90 and 120 minutes after administration of the test compound. The "normal" reaction time is measured as the median of the three pretreatment reaction times. A positive response consists of a reaction time greater than twice the normal time at any of the post treatment times. A dose of the test compound is considered active when 50 percent or more of the animals used show a positive response.
as §2, with “A test compound is considered active when 50 percent or more of the animals used show a positive response.” left out

[4] abbreviates: Rat2, oral (intragastric), rat, 2 hours after castor oil, read-out: ED50.
Where [5] appears, read: oral (intragastric), rat, 3 hours after castor oil, read-out: ED50.
[6] abbreviates: oral (intragastric), rat, 4 hours after castor oil, read-out: ED50.
[7] abbreviates: oral (intragastric), rat, 5 hours after castor oil, read-out: ED50.
Setting [8] is: oral (intragastric), rat, 6 hours after castor oil, read-out: ED50.
[9] abbreviates: oral (intragastric), rat, 7 hours after castor oil, read-out: ED50.
Setting [10] is: oral (intragastric), rat, 8 hours after castor oil, read-out: ED50.

Where two headings read alike, the source gives them in different places.

On to `Cl.OCC1(c2ccccc2)CCN(CCC(c2ccccc2)(c2ccccc2)c2ccccc2)CC1` [(a), 1-(3,3,3-triphenylpropyl)-4-phenyl-4-piperidinemethanol hydrochloride], for which the ED50 amounted to 0.14 mg/kg in assay [1] (setting [4]); 0.18 mg/kg in assay [1] (setting [5]); 0.24 mg/kg in assay [1] (setting [6]); 0.28 mg/kg in assay [1] (setting [7]); 0.28 mg/kg in assay [1] (setting [8]); 0.28 mg/kg in assay [1] (setting [9]). In addition, the ED50 in assay [1] (setting [10]) came out at 0.35 mg/kg. The “Potency (relative to diphenoxylate hydrochloride)” value came out at 1.35 in assay [1] (rat, 2 hours after castor oil); 2.25 in assay [1] (rat, 3 hours after castor oil); 3.25 in assay [1] (rat, 4 hours after castor oil); 4.33 in assay [1] (rat, 5 hours after castor oil); 5.71 in assay [1] (rat, 6 hours after castor oil); 6.44 in assay [1] (rat, 7 hours after castor oil). Also, the “Potency (relative to diphenoxylate hydrochloride)” value in assay [1] (rat, 8 hours after castor oil) turned out to be 5.42.

Turning to `CCOC(=O)C1(c2ccccc2)CCN(CCC(c2ccccc2)(c2ccccc2)c2ccccn2)CC1` [ethyl 1-[3,3-diphenyl-3-(2-pyridyl)propyl]-4-phenyl-4-piperidinecarboxylate], the ED50 in assay [1] (Rattus norvegicus, po, 2 h, read-out: ED50 2 hrs. post castor oil) amounted to 0.04 mg/kg. In addition, the “analgesia (mouse tail clip test)” value in assay [2] was “weak analgesia”.

For `OCC1(c2ccccc2)CCN(CCC(c2ccccc2)(c2ccccc2)c2ccccc2)CC1` [1-(3,3,3-triphenylpropyl)-4-phenyl-4-piperidinemethanol], in assay [1] (intragastric, rat), the “ability to inhibit gastrointestinal motility” value was “very active”. The analgesic effect result in assay [3] was “very little analgesic effect”.

In the case of `CCOC(=O)C1(c2ccccc2)CCN(CCC(C#N)(c2ccccc2)c2ccccc2)CC1` [Diphenoxylate, reference compound], the ED50 in assay [1] (setting [4]) was determined as 0.22 mg/kg; in assay [1] (setting [5]) it was 0.36 mg/kg; in assay [1] (setting [6]), 0.71 mg/kg; in assay [1] (setting [7]), 1.21 mg/kg; in assay [1] (setting [8]) it was 1.62 mg/kg; in assay [1] (setting [9]) it was 1.85 mg/kg. The ED50 in assay [1] (setting [10]) came out at 1.93 mg/kg.

For the origin of these results see US4072686A, “1-(3,3,3-Triarylalkyl)-4-phenyl-piperidinealkanols” (G. D. Searle & Co., priority 1976, dated 1978).
